Our source for the EC50 and GI50 values is patent US10208056B2, “Condensed tricyclic compounds as protein kinase inhibitors” (FUNDACIÓN DEL SECTOR PÚBLICO ESTATAL CENTRO NACIONAL DE …, priority 2015, dated 2019).

Test [1] has as its target intracellular CDK8 (Homo sapiens (Human), UniProt P49336). In words: Cellular CDK8 inhibition assay, western blot P-STAT1 (S727) in IFN-γ treated SW620 cells. It counts as cell-based. The conditions noted are these: SW620, IFNγ treated, read-out: SW620 P-STAT1(S727) w IFNγ. The procedure: Compounds can be screened for their ability to inhibit intracellular CDK8 using a western blot assay to detect phosphorylation of the CDK8 substrate STAT1 (S727) in IFN-γ treated cells. SW620 cells are plated at 1*10^6 cells per well in 6-well plates (Solmeglas 13118) in RPMI media (Sigma-Aldrich R6504) supplemented with 10% foetal bovine serum (Sigma-Aldrich F7524), Penicillin/Streptomycin solution diluted 1:100 (Gibco 15070-063), and fungizone (Gibco, 15290-018), and allowed to adhere overnight at 37° C. in 5% CO2. Compounds are then added to the cell media from a final concentration of 10 μM in 10-fold serial dilutions and the cells are incubated at 37° C. in 5% CO2. After 1 hour, IFNγ (R&D systems Ref. RYD-285-IF-100) is added to a final concentration of […]. After 3 hours of treatment with IFNγ, the cells are washed in PBS, lysed adding 100 μl of protein lysis buffer (62.5 mM Tris pH 6.8 al 6.25%, 2% SDS y 10% glycerol) incubation 10 minutes at room temperature and heating at 95° C. 10 min. The protein content of the lysates is determined by DC protein assay (Biorad, Ref. 5000116). The proteins are resolved by SDS-PAGE and transferred to nitrocellulose membrane (VWR International eurolab, Ref. 732-4007). The membranes are incubated overnight at 4° C. with antibodies specific for total STAT1 (BD Transduction laboratory #610115), phosphoserine-727 STAT1 (Cell Signaling Ref. 9177) they are washed and then incubated with IRDye800 conjugated anti-mouse (Pierce/Cultek, 35521) and Alexa Fluor 680 goat anti-rabbit IgG secondary antibodies (Invitrogen, A21076). The bands are visualized and quantified using an Odyssey infrared imaging system (Li-Cor Biosciences). The percentage of phosphorylated STAT1 vs total STAT1 in cells treated with IFNγ is taken as hundred percent of phosphorylation. The percentage of STAT1 phosphorylation is finally plotted against concentration for each compound and EC50s for intracellular CDK8 inhibition are calculated using ActivityBase from IDBS.
Background: A western blot detects proteins with antibodies after separation by electrophoresis.

Test [2] deals with intracellular HASPIN (Homo sapiens (Human), UniProt Q8TF76). In words: Cellular HASPIN inhibition assay, western blot phospho H3T3 in synchronized SW620 cells. The format is cell-based. The conditions noted are these: read-out: SW620 PH3(T3) in synchronized cells.
The test system of test [3] is MV4:11. As to the kind of experiment: In vitro cell proliferation assay (CellTiter-Glo), MV4:11. The following applies: Homo sapiens, MV4-11, growth inhibition, read-out: GI50 MV4:11. It counts as cell-based. On the technique in general: ATP-based viability assays read luminescence as a measure of living cells.
Test [4] has as its system SW620. In words: In vitro cell proliferation assay (CellTiter-Glo), SW620. The format is cell-based, human. The conditions noted are these: Homo sapiens, SW-620, growth inhibition, read-out: GI50 SW620.

Read-outs that look alike come from different tables or passages of the source.

Sequence of intracellular CDK8 (P49336 whole entry): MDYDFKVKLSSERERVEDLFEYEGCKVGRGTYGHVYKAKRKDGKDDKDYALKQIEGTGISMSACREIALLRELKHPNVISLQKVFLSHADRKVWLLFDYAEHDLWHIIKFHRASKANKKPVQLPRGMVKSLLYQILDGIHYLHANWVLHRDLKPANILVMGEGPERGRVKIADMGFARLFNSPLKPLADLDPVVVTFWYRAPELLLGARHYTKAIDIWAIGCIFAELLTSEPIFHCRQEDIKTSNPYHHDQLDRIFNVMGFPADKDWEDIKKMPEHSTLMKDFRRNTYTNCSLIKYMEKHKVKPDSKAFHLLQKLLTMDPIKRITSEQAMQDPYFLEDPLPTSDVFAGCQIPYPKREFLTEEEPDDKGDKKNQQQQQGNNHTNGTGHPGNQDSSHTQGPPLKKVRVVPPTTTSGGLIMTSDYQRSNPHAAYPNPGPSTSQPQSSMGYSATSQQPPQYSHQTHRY
Sequence of intracellular CDK8 (P24863 whole entry partner): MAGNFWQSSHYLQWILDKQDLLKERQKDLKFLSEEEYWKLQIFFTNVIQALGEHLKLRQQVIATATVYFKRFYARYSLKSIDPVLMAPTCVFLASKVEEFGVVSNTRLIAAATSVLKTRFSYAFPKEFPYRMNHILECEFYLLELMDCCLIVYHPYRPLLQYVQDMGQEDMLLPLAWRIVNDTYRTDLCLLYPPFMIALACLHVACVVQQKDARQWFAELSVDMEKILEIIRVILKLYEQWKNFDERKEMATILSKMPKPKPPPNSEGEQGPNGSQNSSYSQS
Sequence of intracellular CDK8 (Q93074 whole entry partner): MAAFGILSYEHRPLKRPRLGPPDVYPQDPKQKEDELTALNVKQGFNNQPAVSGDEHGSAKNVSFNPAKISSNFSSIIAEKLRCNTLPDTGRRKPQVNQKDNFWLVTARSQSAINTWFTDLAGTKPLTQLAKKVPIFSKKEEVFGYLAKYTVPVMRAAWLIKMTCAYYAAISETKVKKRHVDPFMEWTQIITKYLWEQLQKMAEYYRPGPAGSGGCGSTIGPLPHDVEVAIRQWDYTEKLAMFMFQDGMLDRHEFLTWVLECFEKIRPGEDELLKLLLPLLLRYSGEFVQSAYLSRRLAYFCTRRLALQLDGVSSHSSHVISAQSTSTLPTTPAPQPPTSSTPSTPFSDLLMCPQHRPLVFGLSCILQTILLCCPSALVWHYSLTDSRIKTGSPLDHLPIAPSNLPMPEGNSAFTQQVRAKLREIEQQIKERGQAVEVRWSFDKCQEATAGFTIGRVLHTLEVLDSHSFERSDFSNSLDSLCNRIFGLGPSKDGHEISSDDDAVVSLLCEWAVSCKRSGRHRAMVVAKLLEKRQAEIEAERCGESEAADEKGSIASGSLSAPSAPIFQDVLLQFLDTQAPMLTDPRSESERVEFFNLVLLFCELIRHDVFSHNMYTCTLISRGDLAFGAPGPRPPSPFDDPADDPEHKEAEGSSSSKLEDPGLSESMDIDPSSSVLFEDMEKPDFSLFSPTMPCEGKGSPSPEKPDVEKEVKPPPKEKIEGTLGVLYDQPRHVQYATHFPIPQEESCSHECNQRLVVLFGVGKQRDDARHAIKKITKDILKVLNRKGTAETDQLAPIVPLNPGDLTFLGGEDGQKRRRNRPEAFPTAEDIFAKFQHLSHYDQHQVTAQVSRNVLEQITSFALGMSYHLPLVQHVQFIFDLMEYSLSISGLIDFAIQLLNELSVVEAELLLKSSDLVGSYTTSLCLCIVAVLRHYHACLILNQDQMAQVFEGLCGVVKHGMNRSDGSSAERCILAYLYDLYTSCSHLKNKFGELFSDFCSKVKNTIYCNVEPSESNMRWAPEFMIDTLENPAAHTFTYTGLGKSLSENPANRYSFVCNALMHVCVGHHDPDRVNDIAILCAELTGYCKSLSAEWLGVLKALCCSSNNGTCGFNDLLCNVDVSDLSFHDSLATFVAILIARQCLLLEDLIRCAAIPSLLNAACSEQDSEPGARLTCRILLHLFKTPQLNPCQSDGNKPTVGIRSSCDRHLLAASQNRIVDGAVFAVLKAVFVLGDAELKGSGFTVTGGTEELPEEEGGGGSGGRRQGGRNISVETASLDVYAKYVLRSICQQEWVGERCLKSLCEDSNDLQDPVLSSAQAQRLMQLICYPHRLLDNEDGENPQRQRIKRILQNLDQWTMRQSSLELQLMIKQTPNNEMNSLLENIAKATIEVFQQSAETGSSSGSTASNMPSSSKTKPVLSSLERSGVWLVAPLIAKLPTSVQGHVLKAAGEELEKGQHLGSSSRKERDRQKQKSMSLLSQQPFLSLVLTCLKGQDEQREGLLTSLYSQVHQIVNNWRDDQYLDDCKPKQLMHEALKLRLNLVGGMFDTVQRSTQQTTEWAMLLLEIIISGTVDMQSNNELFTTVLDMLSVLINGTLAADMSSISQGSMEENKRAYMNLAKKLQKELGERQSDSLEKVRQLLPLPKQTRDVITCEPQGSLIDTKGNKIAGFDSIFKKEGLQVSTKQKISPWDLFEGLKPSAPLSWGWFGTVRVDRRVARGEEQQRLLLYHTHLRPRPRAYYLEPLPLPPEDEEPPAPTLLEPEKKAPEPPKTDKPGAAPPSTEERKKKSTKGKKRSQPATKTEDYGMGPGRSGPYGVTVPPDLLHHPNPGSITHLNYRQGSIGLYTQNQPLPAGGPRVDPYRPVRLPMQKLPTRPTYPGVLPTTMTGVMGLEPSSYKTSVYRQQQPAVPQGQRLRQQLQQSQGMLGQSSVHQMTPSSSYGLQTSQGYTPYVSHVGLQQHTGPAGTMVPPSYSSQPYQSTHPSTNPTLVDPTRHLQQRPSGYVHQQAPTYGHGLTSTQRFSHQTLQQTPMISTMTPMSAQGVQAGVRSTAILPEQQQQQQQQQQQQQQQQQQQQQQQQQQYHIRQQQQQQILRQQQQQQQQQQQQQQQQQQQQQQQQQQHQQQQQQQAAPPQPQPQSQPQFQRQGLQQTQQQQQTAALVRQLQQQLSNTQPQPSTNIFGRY
Sequence of intracellular HASPIN (Q8TF76 whole entry): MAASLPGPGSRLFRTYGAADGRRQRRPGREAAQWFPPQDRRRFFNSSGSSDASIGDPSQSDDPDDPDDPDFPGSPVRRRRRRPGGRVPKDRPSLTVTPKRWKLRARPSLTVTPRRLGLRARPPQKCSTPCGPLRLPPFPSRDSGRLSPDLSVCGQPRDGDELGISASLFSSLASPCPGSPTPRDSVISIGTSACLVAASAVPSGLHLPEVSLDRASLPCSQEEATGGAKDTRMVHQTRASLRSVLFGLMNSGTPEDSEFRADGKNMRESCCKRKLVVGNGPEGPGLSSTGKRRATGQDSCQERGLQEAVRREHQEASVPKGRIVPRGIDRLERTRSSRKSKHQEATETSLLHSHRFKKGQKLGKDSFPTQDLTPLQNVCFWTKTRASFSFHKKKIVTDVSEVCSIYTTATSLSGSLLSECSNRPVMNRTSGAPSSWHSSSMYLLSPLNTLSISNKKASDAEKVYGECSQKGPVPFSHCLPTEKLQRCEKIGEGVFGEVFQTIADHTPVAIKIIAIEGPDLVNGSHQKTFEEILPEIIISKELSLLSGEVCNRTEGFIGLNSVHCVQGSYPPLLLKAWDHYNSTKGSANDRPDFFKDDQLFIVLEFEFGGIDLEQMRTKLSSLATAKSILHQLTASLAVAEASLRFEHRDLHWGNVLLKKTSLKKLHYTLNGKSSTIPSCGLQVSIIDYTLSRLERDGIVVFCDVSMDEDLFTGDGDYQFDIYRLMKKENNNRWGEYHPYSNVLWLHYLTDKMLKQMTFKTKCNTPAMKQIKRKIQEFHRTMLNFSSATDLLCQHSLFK

One may read the GI50 as the concentration that inhibits growth by half. In the case of `NC(=O)c1cc2c([nH]1)-c1ccncc1O[C@H]2C1CCOCC1` (single isomer, unassigned) [Example 72], the EC50 in test [1] (semiquantitative) was < 500 nM; in test [2] (semiquantitative), 500 to 10000 nM. For the same molecule, the 50% growth inhibitory concentration (GI50) lay within 1000 to 10000 nM in test [3] (semiquantitative) and 10000 to 100000 nM in test [4] (semiquantitative).
Consider `CCn1c(C(N)=O)cc2c1-c1ccncc1OC2(C)C` [Example 43], for which the EC50 in test [1] (quantitative) is 0.064 nM; in test [2] (quantitative) it was 15 nM. In addition, the GI50 in test [3] (quantitative) worked out at 115 nM; in test [4] (quantitative), 3390 nM.
In the case of `CC1(C)Oc2cnccc2-c2c1cc(C(N)=O)n2CCF` [Example 52], the EC50 in test [1] (semiquantitative) and in test [2] (semiquantitative) was < 500 nM in each case. The GI50 in test [3] (semiquantitative) is < 1000 nM; in test [4] (semiquantitative), 1000 to 10000 nM.
Take `CCn1c(C(N)=O)c(-c2ccccc2OC)c2c1-c1ccncc1OC2(C)C` [Example 68]: the EC50 in test [1] (semiquantitative) and in test [2] (semiquantitative) was < 500 nM in each case. Further, the figures for the GI50 in test [3] (semiquantitative) and in test [4] (semiquantitative) were < 1000 nM and 10000 to 100000 nM, respectively.
